This is an account of results in patent publication US20240165276A1, “SELECTIVE LIGANDS FOR TAU AGGREGATES” (KARIN & STEN MORTSTEDT CBD SOLUTIONS AB, priority 2019, published 2024).

One series addresses Aβ(1-42) amyloid fibrils (Homo sapiens, UniProt P05067). Nature of the series: ^3H-AZD2184 competition binding to Aβ(1-42) fibrils in vitro. To be noted: competition with [^3H]-AZD2184, Aβ(1-42) amyloid fibrils; average if run more than once. As to the method: ^3H-AZD2184 Competition Binding to Aβ(1-42) Fibrils In Vitro
Competition binding experiments to Aβ(1-42) amyloid fibrils were performed as previously described in Jureus, A., et al, Journal of Neurochemistry (2010), Vol. 114, pages 784-794 for the Example compounds of the invention indicated in Table 2, or the known tau specific ligand PBB3 (PBB3 was synthesized as previously described in M. Maruyama, et al, Neuron 2013, 79, 1094-1108).
The results are shown in Table 2 in the column labeled “Aβ IC50”.

In series [1] the test system is recombinant 0N4R Tau fibrils. Nature of the series: ^3H-THK5117 competition binding to tau fibrils in vitro. To be noted: calculated from [^3H]-THK5117 tau and [^3H]-AZD2184 Aβ assay results. As to the method: (§1) ^3H-THK5117 Competition Binding to Tau Fibrils In Vitro
(§2) Preparation of recombinant 0N4R Tau fibrils was performed as previously described in Morozova, O. A., Biochemistry (2013), Vol., 52(40), pages 6960-6967. Competition binding experiments to 0N4R Tau fibrils were performed by incubating increasing concentrations [10^−10-10^−6 M] of the Example compounds of the invention, or the known tau specific ligand PBB3 (PBB3 was synthesized as previously described in M. Maruyama, et al, Neuron 2013, 79, 1094-1108) or MK6240 (Novandi Chemistry AB), in the presence of 3 nM of the known tau ligand [^3H]-THK5117 (Novandi Chemistry) and 0.2 mM 0N4R tau fibrils in binding buffer (50 mM Tris-HCl, pH 7.4, 0.1% BSA) for 1 h in the dark, and at 22° C. The incubation was terminated by filtration through a Whatman GF/B glass filter (Whatman International, Kent, UK) using a Brandel cell harvester. The filter was then washed rapidly four times with 3 mL of ice-cold wash buffer (5 mM Tris-HCl, 0.25 mM NaCl, 5% EtOH), and equilibrated for 1 h in scintillation vials containing 5 mL of Ultima Gold scintillation fluid before being analysed using a Liquid Scintillation Analyzer.
(§3) The results are shown in Table 2 in the column labeled “Tau IC50”.
(§4) Relative Selectivity for Tau vs. Aβ
(§5) Relative selectivity for tau compared to Aβ for the exemplified compounds was calculated using the results for the [^3H]-THK5117 tau and [^3H]-AZD2184 Aβ assays described above. The calculated results are shown in Table 2 in the column labeled “Selectivity for tau relative to Aβ”.

Series [2] deals with recombinant 0N4R Tau fibrils (Homo sapiens (Human), UniProt P10636). The description is as above. To be noted: for pIC50: competition with 3 nM [^3H]-THK5117, 0N4R tau fibrils, 1 h, 22° C., average if run more than once. As to the method: as §1, §2, §3, §4, §5
The conditions of series [3]: cited from earlier work.

pIC50: −log10 of the molar value. Where two headings read alike, the source gives them in different places.

Chain of Aβ(1-42) amyloid fibrils (P05067 672-713 limits assumed): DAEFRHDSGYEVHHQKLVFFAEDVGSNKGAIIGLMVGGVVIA
Chain of recombinant 0N4R Tau fibrils (Homo sapiens (Human), UniProt P10636) (P10636 other isoform, or with tags, fused parts or gaps): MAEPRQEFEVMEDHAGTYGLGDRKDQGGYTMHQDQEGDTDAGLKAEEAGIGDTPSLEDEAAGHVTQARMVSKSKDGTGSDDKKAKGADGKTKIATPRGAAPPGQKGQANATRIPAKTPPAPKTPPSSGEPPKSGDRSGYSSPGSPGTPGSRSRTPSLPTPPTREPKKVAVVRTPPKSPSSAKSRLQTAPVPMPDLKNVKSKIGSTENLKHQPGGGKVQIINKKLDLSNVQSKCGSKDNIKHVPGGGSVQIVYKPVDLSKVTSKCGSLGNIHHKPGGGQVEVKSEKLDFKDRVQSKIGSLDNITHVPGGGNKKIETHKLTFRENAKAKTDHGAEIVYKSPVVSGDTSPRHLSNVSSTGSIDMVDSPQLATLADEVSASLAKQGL

For `COc1ccc2nc(-c3ccc(N4CCC(O)(CO)CC4)nc3)sc2c1` [Compound 14, 4-(Hydroxymethyl)-1-[5-(6-methoxy-1,3-benzothiazol-2-yl)pyridin-2-yl]piperidin-4-ol], the results for the pIC50 (at Aβ(1-42) amyloid fibrils; in series [2]) were 7.19 and 8.05, respectively. For the same compound, in series [1], the “Selectivity for tau relative to Aβ” value is 7.2.

Turning to `O[C@@H]1CCCN(c2ccc(-c3cc4cc(OCCF)ccc4[nH]3)cn2)C1` [Compound 28, (3R)-1-{5-[5-(2-Fluoroethoxy)-1H-indol-2-yl]pyridin-2-yl}piperidin-3-ol], the values for the pIC50 (on Aβ(1-42) amyloid fibrils; in series [2]) were 8.10 and 8.40, respectively. Besides, the “Selectivity for tau relative to Aβ” value in series [1] was 2.

On to `Oc1ccc2[nH]c(-c3cnc(N4CCC[C@@H](O)C4)nc3)cc2c1` [Compound 30, 2-{2-[(3R)-3-Hydroxypiperidin-1-yl]pyrimidin-5-yl}-1H-indol-5-ol], for which the values for the pIC50 (on Aβ(1-42) amyloid fibrils; in series [2]) were 7.05 and 6.82, respectively. Moreover, the “Selectivity for tau relative to Aβ” value in series [1] is recorded as 0.6.

`COc1ccc2nc(-c3ccc(N4CCCC(O)C4)nc3)sc2c1` (stereo not shown) [Compound 1, 1-[5-(6-Methoxy-1,3-benzothiazol-2-yl)pyridin-2-yl]piperidin-3-ol]: the pIC50 (in general, −log10 of the IC50, conventionally taken in molar units) at Aβ(1-42) amyloid fibrils was 8.10; in series [2], 8.40. Further, in series [1], the “Selectivity for tau relative to Aβ” value was 2.

As to `OC[C@@H]1CCN(c2ccc(-c3cc4cc(O)ccc4[nH]3)c(F)n2)C[C@@H]1O` [Compound 26], the pIC50 in series [2] is 7.32.

As for `COc1ccc2nc(-c3ccc(N4CC[C@@H](O)[C@@H](O)C4)nc3)sc2c1` [Compound 23, (3S,4R)-1-[5-(6-Methoxy-1,3-benzothiazol-2-yl)pyridin-2-yl]piperidine-3,4-diol], in series [2], the pIC50 was 8.22.

`O[C@@H]1CCCN(c2ncc(-c3cc4cc(OCCF)ccc4[nH]3)cn2)C1` [Compound 31, (3R)-1-{5-[5-(2-Fluoroethoxy)-1H-indol-2-yl]pyrimidin-2-yl}piperidin-3-ol]: the pIC50 at Aβ(1-42) amyloid fibrils was 7.92; in series [2], 8.00. The “Selectivity for tau relative to Aβ” value in series [1] is on record as 1.2.

In the case of `OCC1CN(c2ccc(-c3cc4cc(O)ccc4[nH]3)c(F)n2)C1` [Compound 4], the pIC50 at Aβ(1-42) amyloid fibrils was 7.33; in series [2], 7.42. In addition, the “Selectivity for tau relative to Aβ” value in series [1] is listed as 1.2.

As for `COc1ccc2nc(-c3ccc(N4C[C@H](O)C[C@H](O)C4)nc3)sc2c1` [Compound 12, (3R,5S)-1-[5-(6-Methoxy-1,3-benzothiazol-2-yl)pyridin-2-yl]piperidine-3,5-diol], the pIC50 in series [2] was 7.40.

With `O[C@@H]1CCCN(c2ncc(-c3cc4cc(OCCOCCOCCF)ccc4[nH]3)cn2)C1` [Compound 32, (3R)-1-[5-(5-{2-[2-(2-Fluoroethoxy)ethoxy]ethoxy}-1H-indol-2-yl)pyrimidin-2-yl]piperidin-3-ol], the pIC50 on Aβ(1-42) amyloid fibrils is 7.60; in series [2], 7.05. Besides, the “Selectivity for tau relative to Aβ” value in series [1] was 0.3.

With `COC(=O)C1CN(c2ccc(-c3cc4cc(O)ccc4[nH]3)c(F)n2)C1` [Compound 33, Methyl 1-[6-Fluoro-5-(5-hydroxy-1H-indol-2-yl)pyridin-2-yl]azetidine-3-carboxylate], the pIC50 in series [2] was 8.22.

As to `COc1ccc2nc(-c3ccc(N4CC[C@@H](CO)[C@@H](O)C4)nc3)sc2c1` [Compound 24], in series [2], the pIC50 is 8.05.

Consider `COc1ccc2nc(-c3ccc(N4C[C@H](O)C[C@@H](O)C4)nc3)sc2c1` [Compound 25, (3R,5R)-1-[5-(6-Methoxy-1,3-benzothiazol-2-yl)pyridin-2-yl]piperidine-3,5-diol], for which, in series [2], the pIC50 was 7.21.

Regarding `COc1ccc2nc(-c3ccc(N4CC[C@@H](CO)[C@H](O)C4)nc3)sc2c1` [Compound 11, (3S,4S)-4-(Hydroxymethyl)-1-[5-(6-methoxy-1,3-benzothiazol-2-yl)pyridin-2-yl]piperidin-3-ol], the negative logarithm of the IC50 (pIC50) in series [2] is 7.96.

For `COc1ccc2nc(-c3ccc(N4CC[C@H](O)C4)nc3)sc2c1` [Compound 3, (3S)-1-[5-(6-Methoxy-1,3-benzothiazol-2-yl)pyridin-2-yl]pyrrolidin-3-ol], the negative logarithm of the IC50 (pIC50) (on Aβ(1-42) amyloid fibrils; in series [2]) was 7.96 each time. In addition, the “Selectivity for tau relative to Aβ” value in series [1] is 1.

Turning to `Oc1ccc2[nH]c(-c3ccc(N4CCC[C@@H](O)C4)nc3)cc2c1` [Compound 27, 2-{6-[(3R)-3-Hydroxypiperidin-1-yl]pyridin-3-yl}-1H-indol-5-ol], the pIC50 at Aβ(1-42) amyloid fibrils was 7.49; in series [2], 7.60. Also, the “Selectivity for tau relative to Aβ” value in series [1] is reported as 1.3.

On to `Oc1ccc2[nH]c(-c3ccc(N4CCC[C@H](O)C4)nc3F)cc2c1` [Compound 7, 2-{2-Fluoro-6-[(3S)-3-hydroxypiperidin-1-yl]pyridin-3-yl}-1H-indol-5-ol], for which the pIC50 on Aβ(1-42) amyloid fibrils was 7.10; in series [2] it was 8.05. Further, in series [1], the “Selectivity for tau relative to Aβ” value was 8.9.

`COc1ccc2nc(-c3ccc(N4CC[C@@H](O)C4)nc3)sc2c1` [Compound 2, (3R)-1-[5-(6-Methoxy-1,3-benzothiazol-2-yl)pyridin-2-yl]pyrrolidin-3-ol]: the results for the pIC50 (on Aβ(1-42) amyloid fibrils; in series [2]) were 7.66 and 7.74, respectively. In series [1], the “Selectivity for tau relative to Aβ” value is 1.2.

As to `CNc1ccc(/C=C/C=C/c2nc3ccc(O)cc3s2)cn1` [PBB3, reference compound], the pIC50 on Aβ(1-42) amyloid fibrils is 7.55; in series [2], 8.15. Further, the “Selectivity for tau relative to Aβ” value in series [1] is recorded as 4.

Consider `CNc1ccc(/C=C/C=C/c2nc3ccc(O)cc3s2)cn1` [^11C-PBB3], for which the “radiochemical purity after exposure to fluorescent light” value in series [3] (1 min after exposure to fluorescent light) is 77%; in series [3] (from 10 to 60 min after exposure to fluorescent light), “approximately 50%”.

Regarding `Nc1c(F)ccc2cnc(-n3ccc4ccncc43)cc12` [MK-6420, reference compound], the pIC50 in series [2] is less than 6.00. Further, the “binding in the recombinant 4R tau fibrils assay (in words)” value in series [2] (recombinant 4R tau fibrils, [^3H]-THK5117 competition) was “inactive”.

On to `OC[C@@H]1CCN(c2ccc(-c3cc4cc(O)ccc4[nH]3)c(F)n2)C[C@H]1O` [Compound 18, 2-{2-Fluoro-6-[(3S,4S)-3-hydroxy-4-(hydroxymethyl)piperidin-1-yl]pyridin-3-yl}-1H-indol-5-ol], for which, in series [2], the pIC50 was 7.54.

`OCC1(O)CCN(c2ccc(-c3cc4cc(O)ccc4[nH]3)c(F)n2)CC1` [Compound 21, 2-{2-Fluoro-6-[4-hydroxy-4-(hydroxymethyl)piperidin-1-yl]pyridin-3-yl}-1H-indol-5-ol]: the results for the pIC50 (on Aβ(1-42) amyloid fibrils; in series [2]) were 8.05 and 7.40, respectively. The “Selectivity for tau relative to Aβ” value in series [1] is recorded as 0.2.

Consider `Oc1ccc2[nH]c(-c3ccc(N4CCC[C@@H](O)C4)nc3F)cc2c1` [Compound 6, 2-{2-Fluoro-6-[(3R)-3-hydroxypiperidin-1-yl]pyridin-3-yl}-1H-indol-5-ol], for which the pIC50 was 7.43 at Aβ(1-42) amyloid fibrils and 9.00 in series [2]. Also, in series [1], the “Selectivity for tau relative to Aβ” value was 37.

As to `OCC1CCN(c2ccc(-c3cc4ccc(O)cc4[nH]3)c(F)n2)CC1` [Compound 22, 2-{2-Fluoro-6-[4-(hydroxymethyl)piperidin-1-yl]pyridin-3-yl}-1H-indol-6-ol], the pIC50 (at Aβ(1-42) amyloid fibrils; in series [2]) was 8.52 each time. For the same compound, the “Selectivity for tau relative to Aβ” value in series [1] is listed as 1.

As for `OCCC1CN(c2ccc(-c3cc4cc(O)ccc4[nH]3)c(F)n2)C1` [Compound 5], the pIC50 on Aβ(1-42) amyloid fibrils was 7.96; in series [2], 8.15. Moreover, the “Selectivity for tau relative to Aβ” value in series [1] is 1.6.

`O[C@@H]1CCCN(c2ccc(-c3cc4cc(OCCOCCOCCF)ccc4[nH]3)cn2)C1` [Compound 29, (3R)-1-[5-(5-{2-[2-(2-Fluoroethoxy)ethoxy]ethoxy}-1H-indol-2-yl)pyridin-2-yl]piperidin-3-ol]: the pIC50 on Aβ(1-42) amyloid fibrils is 7.10; in series [2], 7.85. Moreover, in series [1], the “Selectivity for tau relative to Aβ” value is given as 5.7.

In the case of `COc1ccc2nc(-c3ccc(N4CC[C@@H](O)[C@H](O)C4)nc3)sc2c1` [Compound 8, (3R,4R)-1-[5-(6-Methoxy-1,3-benzothiazol-2-yl)pyridin-2-yl]piperidine-3,4-diol], in series [2], the pIC50 was 7.80.
